Measurements: patent US20040242550A1, “Means and method for hormonal contraception” (priority 2001, published 2004)

Assay: conversion factors for progestogens: amount equivalent to a given amount of levonorgestrel
Settings: for equivalent to 30 μg levonorgestrel / equivalent to 750 μg levonorgestrel: estimated amount of progestogen; for Conversion factor: relative to levonorgestrel, for guidance, estimate
Text: In order to determine for a specific biogenic estrogen or synthetic estrogen the amounts that are equivalent to a cited amount of ethinyl estradiol or 17beta-estradiol, the method described by Allen and Doisy may suitably be used (Allen A., Doisy E. A., “An ovarian hormone. Preliminary report on its localization, extraction and partial purification, and action in test animals. JAMA (1923), 81, 819-821). Similarly, in order to determine for a given progestogen the amount equivalent to cited amount of levonorgestrel the method originally described by McPhail can be used (Mc Phail M. K. “The assay of progestin” J Physiol (1934), 83, 145-156). A more recent description of this method can be found in an article written by Overbeek G. A., de Visser J. “A new substance with progestational activity”, Acta Endocrinol (1956), 22, 318-329. It is noted that the aforementioned methods will provide useful indications about the anticipated estrogen potency or progestogen potency of a particular hormone. However, to accurately determine the equivalent amounts that are referred to above, it is advisable to additionally conduct in vivo studies in human females.
For guidance the table below provides the conversion factors for a number of progestogens that may suitably be used in the method of the invention. These conversion factors may be used to calculate, for each progestogen mentioned in the table, an estimate of the amount of said progestogen which is equivalent to a given amount of levonorgestrel.

| Compound | equivalent to 30 μg levonorgestrel [µg] | equivalent to 750 μg levonorgestrel [mg] | Conversion factor |
| --- | --- | --- | --- |
| C#C[C@]1(OC(C)=O)CC[C@H]2[C@@H]3CCC4=CC(=NO)CC[C@@H]4[C@H]3CC[C@@]21CC (mixture of isomers) [norgestimate] | 51 | 1.275 | 1.7 |
| C[C@]12CCC(=O)C=C1[C@@H]1C[C@@H]1[C@H]1[C@@H]3[C@@H]4C[C@@H]4[C@@]4(CCC(=O)O4)[C@@]3(C)CC[C@@H]12 [drospirenone] | 600 | 15 | 20 |
| CC(=O)[C@H]1CC[C@H]2[C@@H]3C=CC4=CC(=O)CC[C@@]4(C)[C@@H]3CC[C@]12C [dydrogesterone] | 4000 | 100 | 133 |
| C#C[C@]1(O)CC[C@H]2[C@@H]3CCC4=CC(=O)CC[C@@H]4[C@H]3CC[C@@]21C [norethisterone] | 210 | 5.25 | 7 |
